Results published in the NIST ThermoML archive (doi:10.1021/je500977g).
± gives the expanded uncertainty stated by the source.

Assay: mn = molality of the nth substance listed, in mol/kg
Settings: Liquid

C[N+](C)(C)[O-] [trimethylamine oxide] + O
mass density [kg/m3]
Settings	278.15 K	288.15 K
101 kPa, Vibrating tube method, m1 = 0.0875	1000.16 ± 0.04	999.28 ± 0.04
101 kPa, Vibrating tube method, m1 = 0.1707	1000.36 ± 0.04	999.46 ± 0.04
101 kPa, Vibrating tube method, m1 = 0.2465	1000.55 ± 0.04	999.63 ± 0.04
101 kPa, Vibrating tube method, m1 = 0.3259	1000.75 ± 0.04	999.82 ± 0.04
101 kPa, Vibrating tube method, m1 = 0.4018	1000.95 ± 0.04	1000 ± 0.04
101 kPa, Vibrating tube method, m1 = 0.5862	1001.48 ± 0.04	1000.47 ± 0.04
101 kPa, Vibrating tube method, m1 = 0.7963	1002.11 ± 0.05	1001.02 ± 0.05
101 kPa, Vibrating tube method, m1 = 1.039	1002.89 ± 0.05	1001.71 ± 0.05
101 kPa, Vibrating tube method, m1 = 1.373	1004.01 ± 0.05	1002.7 ± 0.05
101 kPa, Vibrating tube method, m1 = 1.923	1006.05 ± 0.05	1004.48 ± 0.05
101 kPa, Vibrating tube method, m1 = 3.259	1011.69 ± 0.06	1009.4 ± 0.06
101 kPa, Vibrating tube method, m1 = 4.325	1016.41 ± 0.06	1013.58 ± 0.06
10000 kPa, Constant-volume piezometry, m1 = 0.1707	1005.1 ± 0.15	1003.98 ± 0.16
10000 kPa, Constant-volume piezometry, m1 = 0.3259	1005.43 ± 0.15	–
10000 kPa, Constant-volume piezometry, m1 = 0.5862	1006.05 ± 0.15	–
10000 kPa, Constant-volume piezometry, m1 = 1.039	1007.25 ± 0.16	–
10000 kPa, Constant-volume piezometry, m1 = 1.373	1008.19 ± 0.16	–
10000 kPa, Constant-volume piezometry, m1 = 1.923	1009.95 ± 0.16	–
10000 kPa, Constant-volume piezometry, m1 = 3.259	1015.17 ± 0.16	–
10000 kPa, Constant-volume piezometry, m1 = 4.325	1019.59 ± 0.17	–
25000 kPa, Constant-volume piezometry, m1 = 0.1707	1012.1 ± 0.25	–
25000 kPa, Constant-volume piezometry, m1 = 0.3259	1012.31 ± 0.25	–
25000 kPa, Constant-volume piezometry, m1 = 0.5862	1012.75 ± 0.25	–
25000 kPa, Constant-volume piezometry, m1 = 1.039	1013.68 ± 0.25	–
25000 kPa, Constant-volume piezometry, m1 = 1.373	1014.44 ± 0.25	–
25000 kPa, Constant-volume piezometry, m1 = 1.923	1015.88 ± 0.25	–
25000 kPa, Constant-volume piezometry, m1 = 3.259	1020.33 ± 0.26	–
25000 kPa, Constant-volume piezometry, m1 = 4.325	1024.4 ± 0.27	–
50000 kPa, Constant-volume piezometry, m1 = 0.1707	1023.24 ± 0.45	–
50000 kPa, Constant-volume piezometry, m1 = 0.3259	1023.31 ± 0.45	–
50000 kPa, Constant-volume piezometry, m1 = 0.5862	1023.5 ± 0.45	–
50000 kPa, Constant-volume piezometry, m1 = 1.039	1023.97 ± 0.45	–
50000 kPa, Constant-volume piezometry, m1 = 1.373	1024.42 ± 0.46	–
50000 kPa, Constant-volume piezometry, m1 = 1.923	1025.37 ± 0.46	–
50000 kPa, Constant-volume piezometry, m1 = 3.259	1028.7 ± 0.46	–
50000 kPa, Constant-volume piezometry, m1 = 4.325	1032.12 ± 0.47	–
75000 kPa, Constant-volume piezometry, m1 = 0.1707	1033.79 ± 0.66	–
75000 kPa, Constant-volume piezometry, m1 = 0.3259	1033.7 ± 0.66	–
75000 kPa, Constant-volume piezometry, m1 = 0.5862	1033.63 ± 0.66	–
75000 kPa, Constant-volume piezometry, m1 = 1.039	1033.68 ± 0.66	–
75000 kPa, Constant-volume piezometry, m1 = 1.373	1033.85 ± 0.66	–
75000 kPa, Constant-volume piezometry, m1 = 1.923	1034.37 ± 0.67	–
75000 kPa, Constant-volume piezometry, m1 = 3.259	1036.77 ± 0.67	–
75000 kPa, Constant-volume piezometry, m1 = 4.325	1039.49 ± 0.68	–
100000 kPa, Constant-volume piezometry, m1 = 0.1707	1043.78 ± 0.87	–
100000 kPa, Constant-volume piezometry, m1 = 0.3259	1043.57 ± 0.87	–
100000 kPa, Constant-volume piezometry, m1 = 0.5862	1043.26 ± 0.87	–
100000 kPa, Constant-volume piezometry, m1 = 1.039	1042.96 ± 0.87	–
100000 kPa, Constant-volume piezometry, m1 = 1.373	1042.87 ± 0.87	–
100000 kPa, Constant-volume piezometry, m1 = 1.923	1043.01 ± 0.88	–
100000 kPa, Constant-volume piezometry, m1 = 3.259	1044.64 ± 0.88	–
100000 kPa, Constant-volume piezometry, m1 = 4.325	1046.85 ± 0.89	–
